Where “and” joins values, the source holds several entries; their conditions need not be identical. Identical values can stand only once. Marks after values point to notes of the source that are not given here.

Experiment [1] concerns HeLa cells. Description: MTT cell viability assay, HeLa. The class given is cell-based, human. Conditions: for IC50: Homo sapiens, HeLa, MTT, 48 h, mean ± SD, n = 3; for HeLa Selectivity Index (SI): SI = IC50 (HEK 293)/IC50 (HeLa). Here is the method:
(§1) Cell viability assay was performed on the human lung cancer (A549) (ATCC CCL-185), human breast cancer (MCF-7) (ATCC-HTB-22), cervical cancer (HeLa) (ATCC-CCL-2), and human embryonic kidney 293 (HEK293) (ATCC-CRL-1573) cell lines, which were purchased from Deutsche Sammlung von Mikroorganismen und Zellkulturen (DSMZ, Braunschweig, Germany). The cells were maintained in Dulbecco’s modified Eagle’s medium (DMEM), supplemented with 10% fetal bovine serum (FBS), 2 mM L-glutamine, 100 U/mL penicillin, and 100 mg/L streptomycin (Biochrom AG, Berlin, Germany) at 37 °C in a humidified atmosphere of 5% CO2.
(§2) The cytotoxic effect was determined by the MTT (3-(4,5-dimethyl-2-thiazolyl)-2,5-diphenyl-2H-tetrazolium bromide) cell viability assay. Cells were seeded at an initial concentration of 1 × 10^5 cells/mL in 96-well microplates. Cells were then treated with different concentrations (0.5, 5, 10, 25, 50, 100 and 200 µM) of the novel synthesized compounds for 48 h. After the incubation period, the formed formazan crystals were dissolved in dimethyl sulfoxide (DMSO), and the optical density (OD) of the compounds was measured at 570 nm using a spectrophotometer (BMG Labtech, Ortenberg, Germany). Cytotoxicity was expressed as an increase in the mean percentage of cytotoxicity relative to the unexposed control ± standard deviation (SD). […] Control values were set at 0% cytotoxicity. IC50 was calculated by fitting the data to a sigmoidal curve using a four-parameter logistic model and was presented as an average of three independent measurements. […] Doxorubicin was used as a positive control. Each sample was tested in triplicate.
(§3) To evaluate the selectivity of the tested compound(s) toward cancer cells over normal cells, the Selectivity Index (SI) was calculated using the following formula:SI = IC50 (normal cells)/IC50 (cancer cells)
(§4) An SI value greater than 2 was considered to indicate selective cytotoxicity, while values below 2 were interpreted as non-selective. Higher SI values reflect greater therapeutic potential due to reduced toxicity toward normal cells.
For orientation: Tetrazolium dyes change colour on reduction, which living cells bring about.

Experiment [2] relates to MCF-7 cells. Description: LDH leakage assay, MCF-7. The class given is cell-based, human. Conditions: MCF-7, IC50 concentration of compound, 48 h; H2O2 positive control; mean ± SD, n = 3. Here is the method: (§5) One hundred microliters of culture medium was transferred to a new 96-well plate. One hundred microliters of LDH reaction solution was added to each well, and absorbance was measured at 490 nm using an ELISA plate reader (BMG Labtech, Ortenberg, Germany) after 30 min.
For orientation: Release of lactate dehydrogenase indicates damage to the cell membrane.

The test system of a further experiment is HEK 293 cells. Description: MTT cell viability assay, non-cancerous HEK 293. The class given is cell-based, human. To be noted: Homo sapiens, HEK293, 48 h, mean ± SD, n = 3. Here is the method:
as §1
The cytotoxic effect was determined by the MTT (3-(4,5-dimethyl-2-thiazolyl)-2,5-diphenyl-2H-tetrazolium bromide) cell viability assay. Cells were seeded at an initial concentration of 1 × 10^5 cells/mL in 96-well microplates. Cells were then treated with different concentrations (0.5, 5, 10, 25, 50, 100 and 200 µM) of the novel synthesized compounds for 48 h. After the incubation period, the formed formazan crystals were dissolved in dimethyl sulfoxide (DMSO), and the optical density (OD) of the compounds was measured at 570 nm using a spectrophotometer (BMG Labtech, Ortenberg, Germany). Cytotoxicity was expressed as an increase in the mean percentage of cytotoxicity relative to the unexposed control ± standard deviation (SD). […] Control values were set at 0% cytotoxicity. IC50 was calculated by fitting the data to a sigmoidal curve using a four-parameter logistic model and was presented as an average of three independent measurements. […] Each sample was tested in triplicate.

Experiment [3] has as its system A549 cells. Description: LDH leakage assay, A549. The class given is cell-based, human. To be noted: A549, IC50 concentration of compound, 48 h; H2O2 positive control; mean ± SD, n = 3. Here is the method:
as §5

The subject of experiment [4] is A549 cells. Description: Intracellular GSH/GSSG ratio, A549. The class given is cell-based, human. Conditions: A549, IC50 concentration of compound, 48 h; H2O2 positive control; mean ± SD, n = 3. Here is the method: (§6) Intracellular reduced (GSH) and oxidized (GSSG) glutathione levels were measured using the GSH/GSSG Ratio Detection Assay Kit (Cayman Chemical, Ann Arbor, MI, USA, Cat. No: 703002) according to the manufacturer’s protocol. […] After treatment, cells were washed with cold PBS and lysed with MES buffer provided in the kit.
(§7) To prevent oxidation of GSH to GSSG during processing, samples were deproteinized using the supplied metaphosphoric acid solution and neutralized accordingly. Total glutathione and GSSG levels were measured separately by adding the appropriate buffers and reagents to the wells of a 96-well plate, followed by the addition of DTNB recycling reagent and glutathione reductase. Absorbance was read at 405 nm using a microplate reader (BMG Labtech, Germany). The amount of GSH was calculated by subtracting 2 × GSSG from the total glutathione, and the GSH/GSSG ratio was used to assess intracellular redox status.

The subject of experiment [5] is A549 cells. Description: Cell cycle analysis (PI staining, flow cytometry), A549. The class given is cell-based, human. Conditions: A549, IC50 concentration, 48 h, mean ± SEM, n = 3. Here is the method: (§8) Cell cycle distribution was assessed by propidium iodide (PI) staining and flow cytometry. HeLa, MCF-7, and A549 cells were seeded in 6-well plates at a density of 1 × 10^5 cells per well and allowed to attach overnight. […] Following exposure, both adherent and floating cells were collected, washed twice with cold phosphate-buffered saline (PBS, pH 7.4), and fixed overnight in 70% cold ethanol at 4 °C. After fixation, the cells were centrifuged and resuspended in 500 µL of PI/RNase staining solution containing 50 µg/mL PI and 100 µg/mL RNase A (Sigma-Aldrich®, St. Louis, MO, USA), followed by incubation in the dark for 30 min at 37 °C. The stained samples were analyzed using a Muse™ Cell Analyzer (Merck, Millipore, Germany) equipped with a 488 nm excitation laser and a 617 nm emission filter. A minimum of 10,000 events per sample were acquired after exclusion of debris and doublets via FSC-A vs. FSC-H gating. The DNA content histograms were generated automatically, and cell populations were expressed as percentages of G0/G1, S, and G2/M phases using the Muse™ Cell Cycle Analysis Software 1.5.0.0. All assays were conducted in triplicate biological repeats (n = 3), and results were reported as mean ± SEM.
On the technique in general: In flow cytometry, cells or beads pass a laser one at a time.

For experiment [6], the system named is MCF-7 cells. Description: MTT cell viability assay, MCF-7. The class given is cell-based, human. To be noted: for IC50: Homo sapiens, MCF7, MTT, 48 h, mean ± SD, n = 3; for MCF-7 Selectivity Index (SI): SI = IC50 (HEK 293)/IC50 (MCF-7). Here is the method: as §1, §2, §3, §4
Experiment [7] deals with A549 cells. Description: MTT cell viability assay, A549. The class given is cell-based, human. To be noted: for IC50: Homo sapiens, A549, MTT, 48 h, mean ± SD, n = 3; for A549 Selectivity Index (SI): SI = IC50 (HEK 293)/IC50 (A549). Here is the method: as §1, §2, §3, §4
In experiment [8] the test system is MCF-7 cells. Description: Intracellular GSH/GSSG ratio, MCF-7. The class given is cell-based, human. Conditions: MCF-7, IC50 concentration of compound, 48 h; H2O2 positive control; mean ± SD, n = 3. Here is the method: as §6, §7
In experiment [9] the test system is MCF-7 cells. Description: Cell cycle analysis (PI staining, flow cytometry), MCF-7. To be noted: MCF-7, IC50 concentration, 48 h, mean ± SEM, n = 3. The class given is cell-based, human. Here is the method:
as §8

For experiment [10], the system named is MCF-7 cells. Description: Total oxidative status (TOS), MCF-7. The class given is cell-based, human. To be noted: MCF-7, IC50 concentration of compound, 48 h; H2O2 250 µM positive control; mean ± SD, n = 3. Here is the method: (§9) TOS were evaluated using a commercially available kit (Rel Assay Diagnostics®, Gaziantep, Turkey) according to the manufacturer’s instructions. […] The TOS assay quantifies oxidizing agents based on their ability to convert an iron (II) ion chelator complex to iron (III) ions. The results were calibrated against hydrogen peroxide (H2O2, 250 µM) as a positive control for 48 h and expressed as µmol H2O2 equivalents per liter. The analysis was performed in three independent biological replicates (n = 3).

The test system of experiment [11] is A549 cells. Description: Total oxidative status (TOS), A549. The class given is cell-based, human. To be noted: A549, IC50 concentration of compound, 48 h; H2O2 250 µM positive control; mean ± SD, n = 3. Here is the method:
as §9

The test system of experiment [12] is A549, MCF-7, and HeLa cells. Description: MTT cell viability assay, ranges stated across the cancer cell lines. To be noted: Homo sapiens, range over the three cancer cell lines, 48 h. The class given is cell-based. Here is the method:
as §1
The cytotoxic effect was determined by the MTT (3-(4,5-dimethyl-2-thiazolyl)-2,5-diphenyl-2H-tetrazolium bromide) cell viability assay. Cells were seeded at an initial concentration of 1 × 10^5 cells/mL in 96-well microplates. […] After the incubation period, the formed formazan crystals were dissolved in dimethyl sulfoxide (DMSO), and the optical density (OD) of the compounds was measured at 570 nm using a spectrophotometer (BMG Labtech, Ortenberg, Germany). Cytotoxicity was expressed as an increase in the mean percentage of cytotoxicity relative to the unexposed control ± standard deviation (SD). […] IC50 was calculated by fitting the data to a sigmoidal curve using a four-parameter logistic model and was presented as an average of three independent measurements. […]

For experiment [13], the system named is HeLa cells. Description: Total oxidative status (TOS), HeLa. The class given is cell-based, human. To be noted: IC50 concentration of compound, 48 h, H2O2 250 µM positive control, mean ± SD, n = 3. Here is the method:
as §9

Experiment [14] relates to HeLa cells. Description: LDH leakage assay, HeLa. Conditions: IC50 concentration of compound, 48 h, H2O2 positive control, mean ± SD, n = 3. The class given is cell-based, human. Here is the method:
as §5

For `O=C(Cn1c(=O)n(CC(=O)NNC(=O)c2cc3cc(Br)ccc3oc2=O)c2cc(Cl)c(Cl)cc21)NNC(=O)c1cc2cc(Br)ccc2oc1=O` [Compound 12c, N′,N′′′ -(2,2′-(5,6-dichloro-2-oxo-1H-benzo[d]imidazole-1,3(2H)-diyl)bis(acetyl))bis(6-bromo-2-oxo-2H-chromene-3-carbohydrazide)], the IC50 (usually the concentration at which inhibition is half-maximal) with HeLa cells [1] came out at 11.5 ± 0.66 µM; in the experiment on HEK 293 cells it was 21.5 ± 1.24 µM; with MCF-7 cells [6] it was 9.7 ± 0.56 µM; in the experiment on A549 cells [7], 10.2 ± 0.58 µM. The “HeLa Selectivity Index (SI)” value in the experiment on HeLa cells [1] is 1.86. Moreover, the LDH in the experiment with MCF-7 cells [2] was 28.8 ± 2.2 µU/mL and 28.8 ± 2.2 ^a,b µU/mL; with A549 cells [3], 30.4 ± 2.6 µU/mL and 30.4 ± 2.6 ^a,b µU/mL. Moreover, the GSH/GSSG in the experiment with A549 cells [4] was 9.5 ± 0.8 nmol/mg Protein and 9.5 ± 0.8 ^a,b nmol/mg Protein; with MCF-7 cells [8], 10.2 ± 1.0 nmol/mg Protein and 10.2 ± 1.0 ^a,b nmol/mg Protein. The results for the “cells in G0/G1 phase” value in the experiment with A549 cells [5] and with MCF-7 cells [9] were 68.4 ± 2.4% and 72.2 ± 2.3%, respectively. Further, the “cells in G2/M phase” value was determined as 16.4 ± 1.5% in the experiment with A549 cells [5] and 12.5 ± 1.1% with MCF-7 cells [9]. The “cells in S phase” value in the experiment on A549 cells [5] is given as 15.2 ± 1.3%; with MCF-7 cells [9], 15.3 ± 1.2%. Moreover, the “MCF-7 Selectivity Index (SI)” value with MCF-7 cells [6] was found to be 2.21. The “A549 Selectivity Index (SI)” value in the experiment with A549 cells [7] came to 2.01. For the same molecule, the TOS with MCF-7 cells [10] was 8.3 ± 0.6 µmol H2O2 eq/L and 8.3 ± 0.6 ^a,b µmol H2O2 eq/L; with A549 cells [11], 8.5 ± 0.7 µmol H2O2 eq/L and 8.5 ± 0.7 ^a,b µmol H2O2 eq/L.

For `O=c1n(CN2CCN(c3ccc(Cl)cc3)CC2)c2cc(Cl)c(Cl)cc2n1CN1CCN(c2ccc(Cl)cc2)CC1` [Compound 9, 5,6-Dichloro-1,3-bis((4-(4-chlorophenyl)piperazin-1-yl)methyl)-1H-benzo[d]imidazol-2(3H)-one], the IC50 is 8.5 ± 0.49 µM in the experiment with HeLa cells [1]; 15.2 ± 0.87 µM in the experiment with HEK 293 cells; 11.2 ± 0.46 µM with MCF-7 cells [6]; 9.6 ± 0.55 µM in the experiment with A549 cells [7]; 8.5 to 11.2 µM in experiment [12]. Further, the “HeLa Selectivity Index (SI)” value with HeLa cells [1] is recorded as 1.78. For the same molecule, in the experiment on MCF-7 cells [6], the “MCF-7 Selectivity Index (SI)” value is given as 1.35. In addition, the “A549 Selectivity Index (SI)” value with A549 cells [7] amounted to 1.58.

`OO` [Compound H2O2, hydrogen peroxide, reference compound]: the figures for the LDH in the experiment on MCF-7 cells [2], in the experiment with A549 cells [3] and in the experiment on HeLa cells [14] were 39.5 ± 2.7 ^a µU/mL, 40.7 ± 3.0 ^a µU/mL and 41.5 ± 3.2 ^a µU/mL, respectively. Moreover, the TOS in the experiment with HeLa cells [13] was 10.4 ± 0.7 ^a µmol H2O2 eq/L; in the experiment with MCF-7 cells [10] it was 10.1 ± 0.7 ^a µmol H2O2 eq/L; with A549 cells [11] it was 10.5 ± 0.8 ^a µmol H2O2 eq/L. Moreover, the GSH/GSSG was 7.1 ± 0.9 ^a nmol/mg Protein with A549 cells [4] and 7.4 ± 0.9 ^a nmol/mg Protein in the experiment with MCF-7 cells [8].

Source of the values: paper PMC12735921, “Evaluation of Antiproliferative Activity and Molecular Modeling Studies of Some Novel Benzimidazolone-Bridged Hybrid Compounds” (Pharmaceuticals, 2025).
